According to the supplement of paper PMC10307832:

Tests used:
Experiment in all cases: relative viability (nuclei count vs DMSO), 5 days (fraction); higher = more cells survive
XMD8-85 + Linsitinib = compound: CN1CCN(CC1)C2=CC(=C(C=C2)NC3=NC=C4C(=N3)N(C5=CC=CC=C5C(=O)N4C)C)OC [XMD8-85] + C[C@]1(O)C[C@@H](c2nc(-c3ccc4ccc(-c5ccccc5)nc4c3)c3c(N)nccn32)C1 [Linsitinib] (partner 1 µM)
Outline: (§1)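 Lung cancer cell lines were pin-tool dosed in 1536-well plates on the day after seeding, with either a lone drug or a fixed anchor-drug dose plus five library-drug doses (not always all listed) in √10 steps. Nuclei were counted on 4× images after 5 days. Relative viability is the ratio of treated-well to vehicle-well nuclei counts, with each value a median of duplicate plates.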

4EGI-1 + Crizotinib = compound: O=C(O)C(Cc1ccccc1[N+](=O)[O-])=NNc1nc(-c2ccc(Cl)c(Cl)c2)cs1 (mixture of isomers) [4EGI-1] + C[C@@H](Oc1cc(-c2cnn(C3CCNCC3)c2)cnc1N)c1c(Cl)ccc(F)c1Cl [Crizotinib] (partner 1 µM)
Outline: as §1

4EGI-1 + Pemetrexed = compound: O=C(O)C(Cc1ccccc1[N+](=O)[O-])=NNc1nc(-c2ccc(Cl)c(Cl)c2)cs1 (mixture of isomers) [4EGI-1] + Nc1nc2[nH]cc(CCc3ccc(C(=O)N[C@@H](CCC(=O)O)C(=O)O)cc3)c2c(=O)[nH]1 [Pemetrexed] (partner 0.2 µM)
Outline: as §1

4EGI-1 + Olaparib = compound: O=C(O)C(Cc1ccccc1[N+](=O)[O-])=NNc1nc(-c2ccc(Cl)c(Cl)c2)cs1 (mixture of isomers) [4EGI-1] + O=C(c1cc(Cc2n[nH]c(=O)c3ccccc23)ccc1F)N1CCN(C(=O)C2CC2)CC1 [Olaparib] (partner 8 µM)
Outline: as §1

Cell Line | relative viability (XMD8-85 + Linsitinib; first compound 0.08 µM) | relative viability (XMD8-85 + Linsitinib; first compound 0.253 µM) | relative viability (XMD8-85 + Linsitinib; first compound 0.8 µM) | relative viability (XMD8-85 + Linsitinib; first compound 2.53 µM) | relative viability (XMD8-85 + Linsitinib; first compound 8 µM) | relative viability (4EGI-1 + Crizotinib; first compound 0.5 µM) | relative viability (4EGI-1 + Crizotinib; first compound 1.581 µM) | relative viability (4EGI-1 + Crizotinib; first compound 5 µM) | relative viability (4EGI-1 + Crizotinib; first compound 15.81 µM) | relative viability (4EGI-1 + Crizotinib; first compound 50 µM) | relative viability (4EGI-1 + Pemetrexed; first compound 0.5 µM) | relative viability (4EGI-1 + Pemetrexed; first compound 1.581 µM) | relative viability (4EGI-1 + Pemetrexed; first compound 5 µM) | relative viability (4EGI-1 + Pemetrexed; first compound 15.81 µM) | relative viability (4EGI-1 + Pemetrexed; first compound 50 µM) | relative viability (4EGI-1 + Olaparib; first compound 0.5 µM) | relative viability (4EGI-1 + Olaparib; first compound 1.581 µM) | relative viability (4EGI-1 + Olaparib; first compound 5 µM) | relative viability (4EGI-1 + Olaparib; first compound 15.81 µM) | relative viability (4EGI-1 + Olaparib; first compound 50 µM)
201T | 1 | 1.05 | 0.994 | 1.05 | 1.01 | 1.06 | 0.98 | 1.01 | 1.01 | 1.02 | 0.338 | 0.368 | 0.387 | 0.334 | 0.348 | 0.859 | 0.753 | 0.869 | 0.777 | 0.675
A549 | 0.602 | 0.476 | 0.579 | 0.592 | 0.594 | 0.742 | 0.683 | 0.787 | 0.669 | 0.0783 |  |  |  |  |  | 0.495 |  | 0.306 | 0.355 | 0.301
A-427 | 1.24 | 1.18 | 1.11 | 1.16 | 1.02 | 1.02 | 0.728 | 0.791 | 0.822 | 0.424 | 0.982 |  | 0.99 | 0.838 | 0.228 | 0.777 |  | 0.766 | 0.643 | 0.276
ABC-1 | 0.825 | 0.777 | 0.755 | 0.681 | 0.406 | 1.23 | 0.7 | 1.09 | 0.472 | 0.259 |  |  |  |  |  | 0.885 |  | 1.19 | 1.16 | 0.269
BEN | 0.692 | 0.923 | 0.802 | 0.683 | 0.584 | 1.07 | 1.1 | 0.885 | 0.821 | 0.796 | 0.814 | 0.785 | 0.772 | 0.622 | 0.432 | 1.15 | 1.09 | 1.2 | 0.891 | 0.595
CAL-12T | 0.677 | 0.656 | 0.802 | 0.808 | 0.595 | 0.663 |  | 0.742 | 0.618 | 0.281 | 1.21 |  | 1.25 | 1.14 | 0.86 | 0.829 | 0.484 | 0.754 | 0.751 | 0.624
COR-L23 | 0.972 | 0.989 | 1.02 | 0.99 | 0.497 | 0.687 | 0.412 | 0.64 | 0.521 | 0.141 | 0.223 | 0.189 | 0.194 | 0.204 | 0.215 | 0.35 | 0.217 | 0.344 | 0.271 | 0.175
COR-L 105 | 0.913 | 1.02 | 0.779 | 0.902 | 0.372 | 0.722 | 0.626 | 0.789 | 0.887 | 0.784 | 1.2 | 0.996 | 1.14 | 0.905 | 0.98 | 0.64 | 0.635 | 0.644 | 0.559 | 0.537
Calu-6 | 0.985 | 0.946 | 0.994 | 0.894 | 0.788 | 0.796 | 0.756 | 0.854 | 0.834 | 0.201 |  |  |  |  |  | 0.559 | 0.5 | 0.627 | 0.464 | 0.332
ChaGo-K-1 |  |  |  |  |  | 1.23 |  | 1.15 | 0.961 | 0.553 | 0.26 | 0.266 | 0.269 | 0.267 | 0.265 | 0.386 | 0.406 | 0.407 | 0.34 | 0.217
EBC-1 | 0.683 | 0.856 | 0.753 | 0.811 | 0.293 | 0.205 | 0.247 | 0.162 | 0.183 | 0.224 |  |  |  |  |  | 0.808 | 0.755 | 0.765 | 0.506 | 0.237
EKVX | 0.808 | 1.06 | 1.03 | 1.18 | 0.851 | 1.01 | 0.759 | 1.14 | 0.874 | 0.936 | 0.418 |  | 0.407 | 0.325 | 0.368 | 0.838 |  | 0.862 | 0.692 | 0.592
EMC-BAC-2 | 0.851 | 0.803 | 0.793 | 0.797 | 0.813 | 0.776 | 0.594 | 0.706 | 0.627 | 0.306 | 0.418 |  | 0.466 | 0.482 | 0.323 | 0.517 |  | 0.5 | 0.37 | 0.2
EPLC-272H |  | 1.24 | 1.02 | 1.2 | 0.912 | 0.929 | 0.505 | 1.03 | 0.94 | 0.947 | 0.372 | 0.304 | 0.322 | 0.29 | 0.245 | 0.781 | 0.42 | 0.952 | 0.436 | 0.135
H3255 | 0.994 | 0.872 | 0.955 | 0.946 | 0.629 | 1.14 | 0.573 | 0.856 | 0.612 | 0.541 | 0.598 | 0.574 | 0.524 | 0.453 | 0.395 | 0.591 | 0.501 | 0.541 | 0.5 | 0.405
HARA | 1.06 | 0.933 | 0.945 | 0.668 | 0.243 | 1.06 | 1.07 | 1.03 | 0.906 | 0.212 | 0.266 | 0.273 | 0.333 | 0.238 | 0.223 | 0.848 | 0.68 | 1 | 0.515 | 0.18
HCC-15 | 0.867 | 0.849 | 0.843 | 0.866 | 0.661 | 0.831 | 0.893 | 0.858 | 0.776 | 0.598 | 0.231 | 0.22 | 0.204 | 0.198 | 0.212 | 0.716 | 0.691 | 0.634 | 0.676 | 0.517
